Where two headings read alike, the source gives them in different places.
Key:
calpain I = biological target: T1, calpain I (Homo sapiens, UniProt P07384); assay: Calpain I irreversible inhibition assay; format: biochemical, porcine; conditions: 23° C.; for kinact/KI: read-out: kobs/[I] Calpain I
T1 construct: purchased Calbiochem (La Jolla, Calif.)
T1 sequence (P07384 1-714): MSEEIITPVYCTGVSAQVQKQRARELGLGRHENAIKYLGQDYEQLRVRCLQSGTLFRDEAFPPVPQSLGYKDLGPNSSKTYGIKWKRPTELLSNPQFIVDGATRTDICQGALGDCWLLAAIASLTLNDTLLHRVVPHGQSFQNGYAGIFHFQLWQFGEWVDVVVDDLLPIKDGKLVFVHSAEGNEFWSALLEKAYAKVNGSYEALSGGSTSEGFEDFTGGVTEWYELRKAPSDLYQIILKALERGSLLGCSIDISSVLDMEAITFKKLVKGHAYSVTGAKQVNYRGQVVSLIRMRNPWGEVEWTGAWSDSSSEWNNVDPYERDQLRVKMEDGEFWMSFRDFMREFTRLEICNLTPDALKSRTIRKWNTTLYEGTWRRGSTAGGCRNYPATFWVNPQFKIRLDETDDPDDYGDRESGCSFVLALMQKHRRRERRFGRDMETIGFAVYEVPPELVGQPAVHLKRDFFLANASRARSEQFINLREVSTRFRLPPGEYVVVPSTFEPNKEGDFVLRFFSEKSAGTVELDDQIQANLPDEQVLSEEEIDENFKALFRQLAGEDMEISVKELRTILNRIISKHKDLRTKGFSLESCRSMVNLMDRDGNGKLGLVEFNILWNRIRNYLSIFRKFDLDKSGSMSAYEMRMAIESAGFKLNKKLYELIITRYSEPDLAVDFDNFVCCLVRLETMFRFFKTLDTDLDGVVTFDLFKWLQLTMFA
T1 sequence (P04632 1-268 partner): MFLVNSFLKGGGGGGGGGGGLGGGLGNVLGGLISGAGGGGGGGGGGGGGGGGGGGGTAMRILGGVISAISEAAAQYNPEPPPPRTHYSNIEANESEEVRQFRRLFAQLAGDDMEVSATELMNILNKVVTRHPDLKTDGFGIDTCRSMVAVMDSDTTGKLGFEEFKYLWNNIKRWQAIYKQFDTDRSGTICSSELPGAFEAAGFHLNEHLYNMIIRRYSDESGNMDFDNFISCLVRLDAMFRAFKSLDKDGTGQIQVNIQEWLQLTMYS
Method: Calpain I was purchased from Calbiochem (La Jolla, Calif.) in a solution of 30% glycerol at a concentration of 6.96 μM and stored at −20° C. prior to use. The calpain I assay was conducted with 235 μL of a solution of 50 mM Hepes, […], at pH 7.5 (calpain I buffer), 6.5 μL of Suc-Leu-Tyr-AMC substrate solution in DMSO and 4.2 μL of the enzyme solution (6.96 μM) at 23° C. The enzymatic activity was monitored by following the change in fluorescence for 10 min at 465 nm. The k2 values were obtained by non-linear regression analysis and corrected for substrate (1+[S]/KM=1.274). All assays were run in duplicate and the standard deviation was determined.

papain = biological target: T2, papain (Carica papaya, UniProt P00784); assay: Papain incubation method inhibition assay; format: biochemical; conditions: for kinact/KI: pH 7.5, read-out: kobs/[I] Papain, incubation method; for kobs/[I] Papain: incubation method, pH 7.5
T2 construct: purchased
T2 sequence (P00784 134-345): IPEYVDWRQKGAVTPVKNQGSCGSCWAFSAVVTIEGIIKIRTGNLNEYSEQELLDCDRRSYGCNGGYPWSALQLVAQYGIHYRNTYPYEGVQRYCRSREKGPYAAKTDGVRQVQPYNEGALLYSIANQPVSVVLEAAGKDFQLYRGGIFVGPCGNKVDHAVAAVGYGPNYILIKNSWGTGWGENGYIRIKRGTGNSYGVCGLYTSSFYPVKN
Method: (§1) The incubation method was used to measure the irreversible inhibition of papain and cathepsin B. With cathepsin B, 30 μL of a stock inhibitor solution was added to 300 μL of a 0.1 M potassium phosphate buffer containing 1.25 mM EDTA, 0.01% Brij 35 at pH 6.0, followed by the addition of 30 μL of a freshly prepared cathepsin B solution (approximate concentration 6.98×10^−3 μg/μL) in the same potassium phosphate buffer containing 1 mM DTT (freshly prepared). Aliquots (50 μL) from the inhibition mixture were withdrawn at various time intervals and added to 200 μL of a 0.1 M potassium phosphate buffer containing 1.25 mM EDTA, 0.01% Brij 35 at pH 6.0, and the substrate Cbz-Arg-Arg-AMC (499 μM). The release of 7-amino-4-methylcoumarin was monitored (λex=360 nm, λem=465 nm) using a Tecan Spectra Fluor microplate reader. Pseudo first-order inactivation rate constants were obtained from plots of In vt/vo versus time.
The incubation method was also used for commercially available papain. The inhibition incubation buffer for papain was 50 mM Hepes buffer at pH 7.5, containing 2.5 mM DTT (dithiothreitol) and 2.5 mM EDTA. The assay used the substrate Cbz-Phe-Arg-pNA (53.7 μM) in the same buffer. The approximate concentration of papain added to the incubation buffer was 0.29 mg/mL. The release of p-nitroanilide was monitored at 405 nm with a Molecular Devices Thermomax microplate reader. All assays were run in duplicate.

cathepsin B [1] = biological target: T3, cathepsin B (Homo sapiens, UniProt P07858); assay: Cathepsin B incubation method inhibition assay; format: biochemical; conditions: pH 6.0, 23° C., N.I. = no inhibition after 20 minutes of incubation
Method: as §1

cathepsin L [2] = biological target: T4, cathepsin L (Homo sapiens, UniProt P07711); assay: Cathepsin L progress curve inhibition assay; format: biochemical; conditions: corrected for substrate; for kinact/KI: pH 5.5, progress curve method, read-out: kobs/[I] Cathepsin L
T4 construct: purchased Athens Research & Technology (Athens, Ga.)
T4 sequence (P07711 114-333): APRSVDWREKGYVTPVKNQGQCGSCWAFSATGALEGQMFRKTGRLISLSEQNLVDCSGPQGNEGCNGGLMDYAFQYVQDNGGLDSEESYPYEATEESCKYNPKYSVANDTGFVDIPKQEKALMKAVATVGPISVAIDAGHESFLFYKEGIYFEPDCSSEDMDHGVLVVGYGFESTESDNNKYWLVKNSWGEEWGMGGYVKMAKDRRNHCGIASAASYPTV
Method: Cathepsin L was purchased from Athens Research & Technology (Athens, Ga.) in a 20 mM malonate buffer solution at pH 5.5 with 1 mM EDTA and 400 mM NaCl with a specific activity of 4.133 U/mg. The progress of cathepsin L inhibition was conducted with 243 μL of a solution of 0.25 M NaAc, 2 mM EDTA, 0.015% Brij, 5 mM DTT (dithiothreitol) at pH 5.5, 4 μL of Cbz-Phe-Arg-AMC substrate solution (16 mM) in DMSO (2% final concentration). Activity was monitored by following the change in fluorescence for 20 min at 465 nm. The kobs values were obtained by non-linear regression analysis and corrected for substrate (1+[S]/KM=1.274). All assays were run in duplicate and the standard deviation was determined.

[3] = biological target: purified recombinant cruzain (Trypanosoma cruzi, UniProt P25779); assay: Cruzain IC50 determination; format: biochemical; conditions: for IC50: cruzain 2 nM, 5 minutes preincubation at room temperature, pH 5.5
purified recombinant cruzain, sequence (P25779 123-467): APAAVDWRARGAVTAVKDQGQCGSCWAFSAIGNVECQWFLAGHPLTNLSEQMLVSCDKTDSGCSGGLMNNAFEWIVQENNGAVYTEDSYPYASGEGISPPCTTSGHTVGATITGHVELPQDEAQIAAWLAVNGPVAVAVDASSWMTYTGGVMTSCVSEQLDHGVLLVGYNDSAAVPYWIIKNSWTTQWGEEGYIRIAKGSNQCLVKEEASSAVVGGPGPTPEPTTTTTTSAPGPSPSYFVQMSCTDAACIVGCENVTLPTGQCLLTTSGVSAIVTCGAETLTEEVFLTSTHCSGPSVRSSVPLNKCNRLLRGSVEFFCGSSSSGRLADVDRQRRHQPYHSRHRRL
Method: (§2) Inhibitors were screened for effectiveness against purified recombinant cruzain and rhodesain. Cruzain (2 nM) or rhodesain (3 nM) was incubated with 0.0001 to 1 μM inhibitor in 100 mM sodium acetate buffer, pH 5.5 and 5 mM DTT (buffer A), for 5 minutes at room temperature. Buffer A containing Cbz-Phe-Arg-AMC (Bachem, KM=1 μM, AMC=7-amino-4-methylcoumarin) was added to the enzyme and inhibitor to give 20 or 10 μM substrate concentration for cruzain and rhodesain, respectively, in 200 μL. The increase in fluorescence (excitation at 355 nm and emission at 460 nm) was followed with an automated microtiter plate spectrofluorimeter (Molecular Devices, Flex Station). Inhibitor stock solutions were prepared at 20 mM in DMSO and serial dilutions were made in DMSO (0.7% DMSO in assay). Controls were performed using enzyme alone, and enzyme with DMSO. IC50 values were determined graphically using inhibitor concentrations in the linear portion of a plot of enzyme activity versus log [I] (7 concentrations tested with at least 2 in the linear range).

[4] = biological target: purified recombinant rhodesain (Trypanosoma brucei rhodesiense, UniProt Q95PM0); assay: Rhodesain IC50 determination; format: biochemical, Trypanosoma brucei rhodensiense; conditions: for IC50: rhodesain 3 nM, 5 minutes preincubation at room temperature, pH 5.5
purified recombinant rhodesain, sequence (Q95PM0 entry or part of it): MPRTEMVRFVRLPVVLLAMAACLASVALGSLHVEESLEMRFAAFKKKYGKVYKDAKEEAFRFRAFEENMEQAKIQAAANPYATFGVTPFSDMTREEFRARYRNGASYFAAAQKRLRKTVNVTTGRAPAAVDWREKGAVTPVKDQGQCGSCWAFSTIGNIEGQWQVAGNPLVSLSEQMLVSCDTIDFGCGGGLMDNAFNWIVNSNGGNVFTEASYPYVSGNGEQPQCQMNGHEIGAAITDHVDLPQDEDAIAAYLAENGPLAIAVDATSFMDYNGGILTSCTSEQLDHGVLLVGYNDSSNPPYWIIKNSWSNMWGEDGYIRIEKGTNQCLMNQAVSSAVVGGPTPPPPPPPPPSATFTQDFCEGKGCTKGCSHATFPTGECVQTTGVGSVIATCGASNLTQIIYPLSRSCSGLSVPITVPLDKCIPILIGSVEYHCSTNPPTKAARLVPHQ
Method: as §2

cathepsin B [5] = biological target: T3, cathepsin B; conditions: irreversible inhibition; cited from earlier work
cathepsin L [6] = biological target: T4, cathepsin L; conditions: irreversible inhibition; cited from earlier work
cathepsin H = biological target: T5, cathepsin H (Homo sapiens, UniProt P09668); conditions: irreversible inhibition; cited from earlier work
T5 sequence (P09668 98-335): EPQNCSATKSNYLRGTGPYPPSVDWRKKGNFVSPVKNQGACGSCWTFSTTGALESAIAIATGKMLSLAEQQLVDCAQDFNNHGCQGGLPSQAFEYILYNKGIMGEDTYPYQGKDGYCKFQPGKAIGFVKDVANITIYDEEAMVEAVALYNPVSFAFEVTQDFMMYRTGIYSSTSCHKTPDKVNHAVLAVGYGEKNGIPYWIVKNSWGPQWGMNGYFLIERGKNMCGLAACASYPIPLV

[7] = pH 7.5, incubation method, plots of ln vt/v0 vs time
[8] = pH 7.5, progress curve method, corrected for substrate

Question: Which results are given for `C[C@H](NC(=O)OCc1ccccc1)C(=O)NC(=CCS(=O)(=O)c1ccccc1)Cc1ccccc1` (mixture of isomers) [Cbz-Ala-Phe-AS-Ph, Phenyl-3-(N-carbobenzyloxyalanyl)amino-4-phenylbut-2-enyl Sulfone]?
Answer: kinact/KI (calpain I; [7]): 3 M⁻¹ s⁻¹; kinact/KI (papain): 9 M⁻¹ s⁻¹; kobs/[I] Cathepsin B (cathepsin B [1]): N.I.^f; kinact/KI (cathepsin L [2]): 183 ± 10 M⁻¹ s⁻¹; IC50 ([3]; read-out: IC50 Cruzain): > 10000 nM; IC50 ([4]; IC50 Rhodesain): > 10000 nM

Question: Which kinact/KI (calpain I; [7]) does the source give for `CC(C)[C@H](NC(=O)OCc1ccccc1)C(=O)NC(=CCS(=O)(=O)c1ccccc1)Cc1ccccc1` (mixture of isomers) [Cbz-Val-Phe-AS-Ph, Phenyl-3-(N-carbobenzyloxyvalyl)amino-4-phenylbut-2-enyl Sulfone] here?
Answer: The kinact/KI was 3 M⁻¹ s⁻¹.

Question: What about the kinact/KI (papain) of the same molecule?
Answer: Its kinact/KI is 6 ± 1 M⁻¹ s⁻¹.

Question: What about the “kobs/[I] Cathepsin B” value (cathepsin B [1]) of the same molecule?
Answer: The value was “N.I”.

Question: And the kinact/KI (cathepsin L [2])?
Answer: Its kinact/KI is 310 ± 52 M⁻¹ s⁻¹.

Question: What about the IC50 ([3]; read-out: IC50 Cruzain) of the same molecule?
Answer: Its IC50 is 6000 nM.

Question: And the IC50 ([4]; IC50 Rhodesain)?
Answer: Its IC50 is 5000 nM.

Question: For `CC(C)C[C@H](NC(=O)OCc1ccccc1)C(=O)NC(=CCS(=O)(=O)c1ccccc1)Cc1ccccc1` (single isomer, unassigned) [Cbz-Leu-Phe-AS-Ph (Isomer A), Phenyl-3-(N-carbobenzyloxyleucyl)amino-4-phenylbut-2-enyl Sulfone], which kinact/KI (calpain I; [7]) is on record?
Answer: Its kinact/KI is 23 ± 4 M⁻¹ s⁻¹.

Question: What about the “kobs/[I] Papain” value (papain) of the same molecule?
Answer: The value was 49 M⁻¹ s⁻¹.

Question: And the “kobs/[I] Cathepsin B” value (cathepsin B [1])?
Answer: The value was “N.I”.

Question: And the kinact/KI (cathepsin L [2])?
Answer: The kinact/KI was 700 ± 43 M⁻¹ s⁻¹.

Question: What about the IC50 ([3]; read-out: IC50 Cruzain) of the same molecule?
Answer: The IC50 was 60 nM.

Question: What about the IC50 ([4]; IC50 Rhodesain) of the same molecule?
Answer: The IC50 was 40 nM.

Question: Which kinact/KI (calpain I; [8]) does the source give for `CC(C)C[C@H](NC(=O)OCc1ccccc1)C(=O)NC(=CCS(=O)(=O)c1ccccc1)Cc1ccccc1` (single isomer, unassigned) [Cbz-Leu-Phe-AS-Ph (Isomer B), Phenyl-3-(N-carbobenzyloxyleucyl)amino-4-phenylbut-2-enyl Sulfone] here?
Answer: The kinact/KI was 564 ± 32 M⁻¹ s⁻¹.

Question: What about the “kobs/[I] Calpain I” value (calpain I; progress curve method, corrected for substrate, pH 7.5) of the same molecule?
Answer: The value was 564 M⁻¹ s⁻¹.

Question: And the “kobs/[I] Papain” value (papain)?
Answer: The value was 15 ± 1 M⁻¹ s⁻¹.

Question: What about the “kobs/[I] Cathepsin B” value (cathepsin B [1]) of the same molecule?
Answer: Its value is “N.I”.

Question: And the “kobs/[I] Cathepsin L” value (cathepsin L [2]; progress curve method, pH 5.5)?
Answer: Its value is 1062 M⁻¹ s⁻¹.

Question: What about the IC50 ([3]; read-out: IC50 Cruzain) of the same molecule?
Answer: Its IC50 is 300 nM.

Question: And the IC50 ([4]; IC50 Rhodesain)?
Answer: The IC50 was 180 nM.

Question: Which results are given for `CC(C)CCNC(=O)[C@H](CC(C)C)NC(=O)/C=C/C(=O)O` (stereo in doubt) [fumarate derivative of E-64c, trans-HOOCCH═CH—CO-Leu-NH(CH2)2CH(CH3)2]?
Answer: kapp cathepsin B (cathepsin B [5]): 625 M⁻¹ s⁻¹; kapp cathepsin L (cathepsin L [6]): 2272 M⁻¹ s⁻¹; inhibition of cathepsin H (cathepsin H): inhibits

Question: Which kinact/KI (calpain I; [8]) does the source give for `CC(C)C[C@H](NC(=O)OCc1ccccc1)C(=O)N[C@H](C=CS(=O)(=O)c1ccccc1)Cc1ccccc1` [reference compound] here?
Answer: The kinact/KI was 550 ± 2 M⁻¹ s⁻¹.

Question: And the kinact/KI (papain)?
Answer: Its kinact/KI is 10 M⁻¹ s⁻¹.

Question: And the “kobs/[I] Cathepsin B” value (cathepsin B [1])?
Answer: The value was “N.I”.

Question: And the kinact/KI (cathepsin L [2])?
Answer: The kinact/KI was 219 ± 96 M⁻¹ s⁻¹.

Question: And the IC50 ([3]; IC50 Cruzain)?
Answer: The IC50 was 2000 nM.

Question: What about the “fold less potent with cruzain than the corresponding allyl sulfone Cbz-Leu-Phe-AS-Ph” value ([3]; ratio of IC50 values) of the same molecule?
Answer: The value was “over 30 fold”.

Question: And the “fold less potent with rhodesain than the corresponding allyl sulfone Cbz-Leu-Phe-AS-Ph” value ([4]; ratio of IC50 values)?
Answer: The value was over 12 fold.

Question: And the IC50 ([4]; read-out: IC50 Rhodesain)?
Answer: The IC50 was 500 nM.

Source: US7521427B2 (Georgia Tech Research Corporation, priority 2004, dated 2009)
